This is an account of results in publication PMC7378375, “High-Throughput Screening of a Functional Human CXCL12-CXCR4 Signaling Axis in a Genetically Modified S. cerevisiae: Discovery of a Novel Up-Regulator of CXCR4 Activity” (Frontiers in Molecular Biosciences, 2020).

pKd: −log10 of the molar value.

In the assay the target is CXCL12 (Homo sapiens, UniProt P48061). Description: 1H-15N HSQC NMR titration of […]-CXCL12 (global fit of eight resonances, pH […]); supported by SEC-MALS. In kind it is binding. On the technique in general: SEC sorts molecules by how far they enter the pores of the column.
CXCL12, sequence (P48061 22-88): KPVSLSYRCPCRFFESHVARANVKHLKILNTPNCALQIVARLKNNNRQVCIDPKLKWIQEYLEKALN

As usually defined, the pKd is the negative decadic logarithm of the Kd, by convention in mol/L. Turning to `O=C(O)c1ccccc1OP(=O)(O)O` [fosfosal, 2-(phosphonooxy) benzoic acid], the pKd was 3.83.
